# Earlier results in US20130217055A1, “METHOD FOR PREDICTING TYROSINE KINASE INHIBITOR (TKI) RESISTANCE IN PATIENTS SUFFERING FROM CHRONIC MYELOGENOUS LEUKEMIA (CML)” (PamGene B.V., priority 2010, published 2013).
# Tested on: CML patients
smiles,measurement,setting,value
Cc1ccc(NC(=O)c2ccc(CN3CCN(C)CC3)cc2)cc1Nc1nccc(-c2cccnc2)n1 [Imatinib],complete or nearly complete cytogenetic remission,patients treated in chronic phase CML,up to 80% of patients
same,CML patients treated that are or become resistant to the treatment,primary or secondary resistance,about 20%
